Experimental data from article PMC5590943, “Pharmacological characterisation of S 47445, a novel positive allosteric modulator of AMPA receptors” (PLoS ONE, 2017).

What was measured:
[1] = target: GluA1flop/GluA2flip (GluA1o/2i) AMPA receptors (Homo sapiens, UniProt P42261+P42262, Q607R); test: Whole cell patch clamp recordings in transiently transfected HEK-293 cells; details: 0.1 μM S 47445
K^+ATP channel = test: Binding assay, [3H]glibenclamide
[2] = target: T1, human AMPA receptor GluA1o/2o (Homo sapiens, UniProt P42261+P42262, Q607R); test: Glutamate-evoked currents, oocytes expressing recombinant human AMPA receptors; assay type: cell-based
T1 construct: host or cells: Xenopus laevis oocytes
Protocol: (§1) Compounds were tested by bath application.

[3] = target: T2, human AMPA receptor GluA4i/2i (Homo sapiens, UniProt P42262+P48058, Q607R); test: as above; assay type: cell-based
T2 construct: host or cells: Xenopus laevis oocytes
Protocol: as §1

[4] = target: T3, human AMPA receptor GluA1i/2o (Homo sapiens, UniProt P42261+P42262, Q607R); test: as above; assay type: cell-based
T3 construct: host or cells: Xenopus laevis oocytes
Protocol: as §1

[5] = target: T4, human AMPA receptor GluA1o (GluA1 flop) (Homo sapiens, UniProt P42261); test: as above; assay type: cell-based
T4 construct: host or cells: Xenopus laevis oocytes
T4 sequence (P42261 19-906): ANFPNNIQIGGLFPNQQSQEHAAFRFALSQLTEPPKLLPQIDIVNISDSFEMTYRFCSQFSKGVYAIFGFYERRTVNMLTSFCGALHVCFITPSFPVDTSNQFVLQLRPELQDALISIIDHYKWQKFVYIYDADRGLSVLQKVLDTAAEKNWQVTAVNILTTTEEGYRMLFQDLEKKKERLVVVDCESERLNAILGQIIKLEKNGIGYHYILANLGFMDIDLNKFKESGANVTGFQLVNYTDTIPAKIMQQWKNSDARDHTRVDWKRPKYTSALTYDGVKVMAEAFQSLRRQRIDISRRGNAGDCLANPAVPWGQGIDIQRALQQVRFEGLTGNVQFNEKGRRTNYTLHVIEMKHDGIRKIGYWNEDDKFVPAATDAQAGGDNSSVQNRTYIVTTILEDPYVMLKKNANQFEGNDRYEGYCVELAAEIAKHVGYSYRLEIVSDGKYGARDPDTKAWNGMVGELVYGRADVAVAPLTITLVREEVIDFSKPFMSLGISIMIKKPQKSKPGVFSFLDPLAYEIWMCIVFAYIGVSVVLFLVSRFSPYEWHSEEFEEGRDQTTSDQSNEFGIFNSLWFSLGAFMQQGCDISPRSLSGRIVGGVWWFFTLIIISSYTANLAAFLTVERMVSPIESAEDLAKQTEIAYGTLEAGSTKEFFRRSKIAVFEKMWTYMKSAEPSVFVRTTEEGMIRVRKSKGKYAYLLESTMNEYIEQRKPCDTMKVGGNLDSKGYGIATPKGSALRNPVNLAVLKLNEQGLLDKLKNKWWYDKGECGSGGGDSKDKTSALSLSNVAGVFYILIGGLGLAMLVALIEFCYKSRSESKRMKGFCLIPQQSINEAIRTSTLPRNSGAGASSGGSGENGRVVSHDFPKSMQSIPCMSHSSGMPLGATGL
Protocol: as §1

[6] = target: T5, human AMPA receptor GluA1i (GluA1 flip) (Homo sapiens, UniProt P42261); test: as above; assay type: cell-based
T5 construct: host or cells: Xenopus laevis oocytes
Protocol: as §1

[7] = target: T6, human AMPA receptor GluA1i/2i (Homo sapiens, UniProt P42261+P42262, Q607R); test: as above; assay type: cell-based
T6 construct: host or cells: Xenopus laevis oocytes
Protocol: as §1

[8] = test system: human AMPA receptor GluA1o (GluA1 flop); test: as above; assay type: cell-based; details: S 47445 100 μM
Protocol: as §1

[9] = target: T7, human AMPA receptor GluA1o/2i (Homo sapiens, UniProt P42261+P42262, Q607R); test: as above; assay type: cell-based
T7 construct: host or cells: Xenopus laevis oocytes
Protocol: as §1

[10] = target: T8, human AMPA receptor GluA4i/2o (Homo sapiens, UniProt P42262+P48058, Q607R); test: as above; assay type: cell-based
T8 construct: host or cells: Xenopus laevis oocytes
Protocol: as §1

[11] = target: T9, human AMPA receptor GluA4o (GluA4 flop) (Homo sapiens, UniProt P48058, A778Q/D799G/G801D/K798G/P767A/P797S/S776N/S800G/T766N/V780L); test: as above; assay type: cell-based
T9 construct: host or cells: Xenopus laevis oocytes
Protocol: as §1

[12] = target: T10, human AMPA receptor GluA4o/2i (Homo sapiens, UniProt P42262+P48058, Q607R); test: as above; assay type: cell-based
T10 construct: host or cells: Xenopus laevis oocytes
Protocol: as §1

[13] = target: T11, human AMPA receptor GluA4o/2o (Homo sapiens, UniProt P42262+P48058, A778Q/D799G/G801D/K798G/P767A/P797S/Q607R/S776N/S800G/T766N/V780L); test: as above; assay type: cell-based
T11 construct: host or cells: Xenopus laevis oocytes
Protocol: as §1

[14] = target: T12, human AMPA receptor GluA4i (GluA4 flip) (Homo sapiens, UniProt P48058); test: as above; assay type: cell-based
T12 construct: host or cells: Xenopus laevis oocytes
T12 sequence (P48058 21-902): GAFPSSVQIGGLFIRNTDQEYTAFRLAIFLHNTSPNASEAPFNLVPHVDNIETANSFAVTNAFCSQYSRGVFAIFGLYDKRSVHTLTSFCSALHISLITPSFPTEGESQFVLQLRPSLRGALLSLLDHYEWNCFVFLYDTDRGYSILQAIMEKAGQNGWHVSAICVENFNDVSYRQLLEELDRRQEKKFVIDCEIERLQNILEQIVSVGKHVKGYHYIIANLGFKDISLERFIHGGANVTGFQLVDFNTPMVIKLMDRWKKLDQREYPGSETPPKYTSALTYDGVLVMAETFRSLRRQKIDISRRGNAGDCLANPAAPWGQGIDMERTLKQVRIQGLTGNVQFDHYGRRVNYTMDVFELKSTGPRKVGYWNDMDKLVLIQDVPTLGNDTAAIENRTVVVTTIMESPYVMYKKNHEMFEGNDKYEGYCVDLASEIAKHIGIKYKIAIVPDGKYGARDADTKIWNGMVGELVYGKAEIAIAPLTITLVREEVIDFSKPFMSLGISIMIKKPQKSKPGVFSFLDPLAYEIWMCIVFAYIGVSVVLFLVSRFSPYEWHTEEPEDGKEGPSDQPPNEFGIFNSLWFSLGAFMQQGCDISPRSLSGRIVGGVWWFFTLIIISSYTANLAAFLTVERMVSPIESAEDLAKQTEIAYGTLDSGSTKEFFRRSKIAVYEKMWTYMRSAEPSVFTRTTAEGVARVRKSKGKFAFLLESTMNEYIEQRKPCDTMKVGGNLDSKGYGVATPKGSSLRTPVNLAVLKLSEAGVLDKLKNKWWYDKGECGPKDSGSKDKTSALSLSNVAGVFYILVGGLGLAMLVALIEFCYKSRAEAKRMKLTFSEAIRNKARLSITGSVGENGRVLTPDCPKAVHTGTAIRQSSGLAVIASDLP
Protocol: as §1

SK^+Ca channel = test: Binding assay, [125I]apamin
male NMRI mice = test: Spontaneous locomotor activity in mice; assay type: in vivo, mouse; details: 10, 30 and 100 mg/kg p.o. acute
Protocol: Locomotor activity was measured in male NMRI mice (18–20 g, Janvier Labs, Le Genest Saint Isle, France) placed in open-fields equipped with infrared sensors (Imetronic, Pessac, France). Two parameters were automatically computed: the global locomotor activity and the number of rearing by counting the number of times the animal cut photocells. Mice were placed in the apparatus 30 min after oral administration of S 47445 (10, 30 and 100 mg/kg) or vehicle. Spontaneous locomotor activity was recorded for 60 min divided in 6 x 10-min periods. The global locomotor activity was analysed using two way ANOVA (dose x time) followed by Dunnett’s post hoc test. Analyses were performed using SAS v9.2 software (SAS Institute, Cary, NC).

EGFR kinase (h) = EGFR kinase (h) (Homo sapiens, UniProt P00533); test: Enzyme and cell-based assay, ATP + biotinyl peptide (0.1 μM)
Sequence of EGFR kinase (h) (P00533 25-1210): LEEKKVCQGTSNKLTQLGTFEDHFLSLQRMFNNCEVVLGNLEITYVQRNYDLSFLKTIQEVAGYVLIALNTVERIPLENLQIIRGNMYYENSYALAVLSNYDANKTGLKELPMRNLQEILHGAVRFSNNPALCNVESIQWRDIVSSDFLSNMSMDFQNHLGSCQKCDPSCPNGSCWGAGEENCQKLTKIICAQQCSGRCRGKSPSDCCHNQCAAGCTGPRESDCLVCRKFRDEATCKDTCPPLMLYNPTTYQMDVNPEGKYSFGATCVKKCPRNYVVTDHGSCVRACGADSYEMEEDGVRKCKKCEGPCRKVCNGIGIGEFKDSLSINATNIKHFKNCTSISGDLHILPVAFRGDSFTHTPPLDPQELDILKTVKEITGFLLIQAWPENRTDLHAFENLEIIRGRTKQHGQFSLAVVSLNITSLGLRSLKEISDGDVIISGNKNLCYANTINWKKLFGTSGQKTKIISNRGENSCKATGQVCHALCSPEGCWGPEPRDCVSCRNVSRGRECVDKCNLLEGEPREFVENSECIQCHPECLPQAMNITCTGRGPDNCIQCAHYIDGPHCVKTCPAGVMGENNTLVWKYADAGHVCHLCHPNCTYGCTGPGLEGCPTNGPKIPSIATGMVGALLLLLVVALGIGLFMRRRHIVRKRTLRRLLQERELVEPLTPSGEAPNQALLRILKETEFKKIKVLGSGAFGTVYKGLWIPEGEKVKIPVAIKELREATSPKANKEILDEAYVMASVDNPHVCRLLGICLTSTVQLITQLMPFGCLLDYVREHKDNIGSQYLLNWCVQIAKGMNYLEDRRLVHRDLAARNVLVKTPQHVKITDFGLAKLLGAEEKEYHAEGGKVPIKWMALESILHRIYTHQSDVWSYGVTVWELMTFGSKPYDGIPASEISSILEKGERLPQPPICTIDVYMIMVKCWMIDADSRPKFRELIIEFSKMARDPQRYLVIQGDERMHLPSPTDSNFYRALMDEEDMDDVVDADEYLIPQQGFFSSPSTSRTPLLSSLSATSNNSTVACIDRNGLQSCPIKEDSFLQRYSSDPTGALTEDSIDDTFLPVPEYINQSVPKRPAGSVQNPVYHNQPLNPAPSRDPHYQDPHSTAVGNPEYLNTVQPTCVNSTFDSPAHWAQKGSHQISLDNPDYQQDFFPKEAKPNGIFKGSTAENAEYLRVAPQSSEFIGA

K^+V channel = test: Binding assay, [125I]α-dendrotoxin
NMDA = test: Binding assay, [3H]CGP 39653, rat cerebral cortex membranes
kainate receptors = test: Kainate-evoked currents, oocytes injected with rat cortex poly(A+) mRNA; details: n = 3
ATPase (Na+/K+) = test: Enzyme and cell-based assay, ATP (2 mM)
[15] = Solubility noted in co-crystallization experiments with GluA2; assay type: physicochemical; details: prevented co-crystallization with GluA2
PDE1 = test: Enzyme and cell-based assay, [3H]cAMP + cAMP (1 μM)
I2 = test: Binding assay, [3H]idazoxan

Sequence of GluA1flop/GluA2flip (GluA1o/2i) AMPA receptors (P42261 19-906): as the sequence (P42261 19-906) above
Sequence of GluA1flop/GluA2flip (GluA1o/2i) AMPA receptors (P42262 25-883 isoform P42262-2 Q607R): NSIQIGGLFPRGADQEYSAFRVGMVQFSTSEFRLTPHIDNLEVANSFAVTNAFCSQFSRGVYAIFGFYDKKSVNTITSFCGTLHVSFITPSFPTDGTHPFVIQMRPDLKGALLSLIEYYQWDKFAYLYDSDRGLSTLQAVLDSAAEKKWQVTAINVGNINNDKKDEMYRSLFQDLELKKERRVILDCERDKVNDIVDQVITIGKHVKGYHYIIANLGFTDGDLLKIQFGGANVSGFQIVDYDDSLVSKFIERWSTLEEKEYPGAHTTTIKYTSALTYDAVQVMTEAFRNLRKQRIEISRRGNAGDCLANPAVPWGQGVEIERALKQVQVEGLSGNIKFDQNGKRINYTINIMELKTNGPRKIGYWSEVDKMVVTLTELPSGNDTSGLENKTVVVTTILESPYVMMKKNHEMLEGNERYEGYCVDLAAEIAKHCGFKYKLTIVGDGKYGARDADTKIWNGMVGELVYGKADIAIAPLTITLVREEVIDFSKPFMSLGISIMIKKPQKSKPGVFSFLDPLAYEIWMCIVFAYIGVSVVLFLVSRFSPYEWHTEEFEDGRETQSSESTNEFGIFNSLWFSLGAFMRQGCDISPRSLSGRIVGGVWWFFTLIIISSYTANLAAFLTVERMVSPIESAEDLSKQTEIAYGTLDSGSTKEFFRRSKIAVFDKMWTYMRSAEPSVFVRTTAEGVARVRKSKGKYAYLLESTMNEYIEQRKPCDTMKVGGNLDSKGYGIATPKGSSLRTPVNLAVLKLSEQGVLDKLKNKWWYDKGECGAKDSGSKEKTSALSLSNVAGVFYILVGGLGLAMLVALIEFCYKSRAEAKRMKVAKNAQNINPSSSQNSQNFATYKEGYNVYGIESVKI

## O=C1c2cc3nnn(CCc4cccc(F)c4)c(=O)c3cc2OCN1C1CC1 [S 47445, 8-cyclopropyl-3-[2-(3-fluorophenyl)ethyl]-7,8-dihydro-3H-[1,3]oxazino[6,5-g][1,2,3]benzotriazine-4,9-dione]
[1]
  Leftward shift in the EC50 of glutamate: about 16 fold
[1]; control 94.7 ± 32.8 pA
  Amplitude of the glutamate response in presence of S 47445: 247 ± 70 pA
K^+ATP channel; S 47445 1.0E-05 M
  % Inhibition of control specific binding: 0%
K^+ATP channel; S 47445 1.0E-07 M
  % Inhibition of control specific binding: 6%
[2]
  EC50: 3.9 µM
[3]
  EC50: 5.4 µM
[4]
  EC50: 4.3 µM
[5]
  EC50: 2.5 µM
[6]
  EC50: 5.4 µM
[7]
  EC50: 2.6 µM
[8]
  Amplitude of potentiation, flop variants compared to flip variants at GluA1: about 9 fold
[9]
  EC50: 5.4 µM
[10]
  EC50: 3.3 µM
[11]
  EC50: 0.7 µM
[12]
  EC50: 3.8 µM
[13]
  EC50: 2.9 µM
[14]
  EC50: 3 µM
SK^+Ca channel; S 47445 1.0E-05 M
  % Inhibition of control specific binding: -10%
SK^+Ca channel; S 47445 1.0E-07 M
  % Inhibition of control specific binding: 13%
Male NMRI mice
  Global spontaneous locomotor activity: did not significantly modify
  Number of rearing: did not influence
EGFR kinase (h); S 47445 1.0E-05 M
  % Inhibition of control specific binding: 0%
EGFR kinase (h); S 47445 1.0E-07 M
  % Inhibition of control specific binding: -8%
K^+V channel; S 47445 1.0E-05 M
  % Inhibition of control specific binding: -2%
K^+V channel; S 47445 1.0E-07 M
  % Inhibition of control specific binding: -6%
NMDA; S 47445 1.0E-05 M
  % Inhibition of control specific binding: -1%
NMDA; S 47445 1.0E-07 M
  % Inhibition of control specific binding: 2%
NMDA; read-out: Ki, glutamate binding site, n = 2
  Ki: > 10 µM
Kainate receptors
  Effect at kainate-evoked currents: absence of effect
ATPase (Na+/K+); S 47445 1.0E-05 M
  % Inhibition of control specific binding: -2%
ATPase (Na+/K+); S 47445 1.0E-07 M
  % Inhibition of control specific binding: -3%
[15]
  Solubility: poor solubility
PDE1; S 47445 1.0E-05 M
  % Inhibition of control specific binding: 10%
PDE1; S 47445 1.0E-07 M
  % Inhibition of control specific binding: 1%
I2; S 47445 1.0E-05 M
  % Inhibition of control specific binding: 29%
I2; S 47445 1.0E-07 M
  % Inhibition of control specific binding: -5%
